The test system of the experiment is L1210 leukemia ip in BDF1 mice, survival T/C. The experiment is described as follows: NCI In Vivo Anticancer Drug Screen. Data for tumor model L1210 Leukemia (intraperitoneal) in B6D2F1 (BDF1) mice. To be noted: endpoint: mean survival time, higher = longer survival. In short, it runs like this: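 Tumor cells were implanted, animals were treated, and survival was followed. The result divides the treated measurement by the vehicle-control measurement.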

The mark [1] stands for this setting: dose: 100.0 mg/kg/injection, schedule: Q01DX009 (ip), vehicle: saline with Tween-80.
Where [2] appears, read: dose: 200.0 mg/kg/injection, schedule: Q01DX009 (ip), vehicle: saline with Tween-80.
The mark [3] stands for this setting: dose: 400.0 mg/kg/injection, schedule: Q01DX009 (ip), vehicle: saline with Tween-80.
Where [4] appears, read: dose: 12.5 mg/kg/injection, schedule: Q01DX009 (ip), vehicle: Klucel (hydroxypropylcellulose) (HPC).
[5] abbreviates: dose: 12.5 mg/kg/injection, schedule: Q04DX002 (ip), vehicle: Klucel (hydroxypropylcellulose) (HPC).
Setting [6] is: dose: 25.0 mg/kg/injection, schedule: Q04DX002 (ip), vehicle: Klucel (hydroxypropylcellulose) (HPC).
The mark [7] stands for this setting: dose: 50.0 mg/kg/injection, schedule: Q04DX002 (ip), vehicle: Klucel (hydroxypropylcellulose) (HPC).
Where [8] appears, read: dose: 100.0 mg/kg/injection, schedule: Q04DX003 (ip), vehicle: saline with Tween-80.
The mark [9] stands for this setting: dose: 200.0 mg/kg/injection, schedule: Q04DX003 (ip), vehicle: saline with Tween-80.
The mark [10] stands for this setting: dose: 400.0 mg/kg/injection, schedule: Q04DX003 (ip), vehicle: saline with Tween-80.
Setting [11] is: dose: 100.0 mg/kg/injection, schedule: Q04DX003 (ip), vehicle: Klucel (hydroxypropylcellulose) (HPC).
Where [12] appears, read: dose: 200.0 mg/kg/injection, schedule: Q04DX003 (ip), vehicle: Klucel (hydroxypropylcellulose) (HPC).
The mark [13] stands for this setting: dose: 100.0 mg/kg/injection, schedule: Q04DX003 (ip), vehicle: other.
[14] abbreviates: dose: 200.0 mg/kg/injection, schedule: Q04DX003 (ip), vehicle: other.
Where [15] appears, read: dose: 50.0 mg/kg/injection, schedule: Q01DX009 (ip), vehicle: saline with Tween-80.
Where [16] appears, read: dose: 100.0 mg/kg/injection, schedule: Q04DX003 (ip), vehicle: saline.
The mark [17] stands for this setting: dose: 200.0 mg/kg/injection, schedule: Q04DX003 (ip), vehicle: saline.
[18] abbreviates: dose: 400.0 mg/kg/injection, schedule: Q04DX003 (ip), vehicle: saline.
Where [19] appears, read: dose: 400.0 mg/kg/injection, schedule: Q04DX002 (ip), vehicle: saline with Tween-80.
Where [20] appears, read: dose: 50.0 mg/kg/injection, schedule: Q01DX009 (ip), vehicle: saline.
The mark [21] stands for this setting: dose: 100.0 mg/kg/injection, schedule: Q01DX009 (ip), vehicle: saline.
The mark [22] stands for this setting: dose: 200.0 mg/kg/injection, schedule: Q01DX009 (ip), vehicle: saline.

Values joined by “and” are separate entries in the source; they are usually repeats but may differ in a detail not shown here. Identical values can stand only once. Inconclusive results and toxic doses are left out.

From PubChem BioAssay AID248 (DTP/NCI, 2004) come the findings set out here.

As for `O=C(N/N=C/c1ccc(O)cc1O)c1ccc(O)cc1`, the T/C reads like this: (dose: 100.0 mg/kg/injection, schedule: Q04DX002 (ip), vehicle: Klucel (hydroxypropylcellulose) (HPC)) 92 % of control; (dose: 200.0 mg/kg/injection, schedule: Q04DX002 (ip), vehicle: Klucel (hydroxypropylcellulose) (HPC)) 103 % of control; (dose: 400.0 mg/kg/injection, schedule: Q04DX002 (ip), vehicle: Klucel (hydroxypropylcellulose) (HPC)) 103 % of control.
Turning to `CC(=O)NC(=O)CC(O)(c1ccccc1)c1ccccc1`, the T/C reads like this: under setting [1], 96 % of control; under setting [2], 91 % of control; under setting [3], 92 % of control.
Turning to `N=C(N)CSS(=O)(=O)O`, the T/C by setting is: under setting [4], 107 % of control; under setting [5], 104 % of control; (dose: 25.0 mg/kg/injection, schedule: Q01DX009 (ip), vehicle: Klucel (hydroxypropylcellulose) (HPC)) 107 % of control; under setting [6], 101 % of control; under setting [7], 93 % of control.
For `O=Cc1sc2cc[nH]c2c1O`, the T/C is, setting by setting: under setting [8], 100 % of control; under setting [9], 97 % of control; under setting [10], 94 % of control.
`C[N+](C)(C)CC(=O)N/N=C\c1c(O)ccc2ccccc12`: the T/C runs as follows: (dose: 25.0 mg/kg/injection, schedule: Q04DX003 (ip), vehicle: saline with Tween-80) 97 % of control; (dose: 50.0 mg/kg/injection, schedule: Q04DX003 (ip), vehicle: saline with Tween-80) 104 % of control; under setting [11], 100 % of control; under setting [8], 97 % of control; under setting [12], 93 % of control.
In the case of `CC(C)(C)c1ccc(C(=O)O)cc1Br`, the T/C is 104 % of control (dose: 50.0 mg/kg/injection, schedule: Q04DX003 (ip), vehicle: other); 113 % of control under setting [13]; 98 % of control under setting [14].
On to `Cc1cnc(C#N)c(C#N)n1`, for which the T/C by setting is: under setting [5], 100 % of control; under setting [6], 96 % of control; under setting [7], 96 % of control.
Regarding `Brc1c(N=Cc2ccccc2)ccc2ccccc12`, the T/C was 94 % of control under setting [1]; 102 % of control under setting [8]; 87 % of control under setting [2]; 102 % of control under setting [9]; 89 % of control under setting [3]; 89 % of control under setting [10].
With `O=C1OC(Cc2ccccc2)(c2ccccc2)c2ccccc21` (stereo not given), the T/C is 90 % of control under setting [15], 88 % of control under setting [1] and 89 % of control under setting [2].
On to `O=[N+]([O-])c1cc([N+](=O)[O-])c(Cl)cc1Cl`, for which the T/C by setting is: (dose: 3.13 mg/kg/injection, schedule: Q01DX009 (ip), vehicle: Klucel (hydroxypropylcellulose) (HPC)) 101 % of control; (dose: 6.25 mg/kg/injection, schedule: Q01DX009 (ip), vehicle: Klucel (hydroxypropylcellulose) (HPC)) 106 % of control; under setting [4], 106 % of control; under setting [11], 96 % of control; under setting [12], 89 % of control.
With `CCOC(=O)/C=C1\CCCc2cc(C)c(C)cc21`, the T/C under setting [13] is 105 % of control; the T/C under setting [14] was 94 % of control; the T/C (dose: 400.0 mg/kg/injection, schedule: Q04DX003 (ip), vehicle: other) is 104 % of control.
As to `CC12CCC(O)C(C)(C)C1=C(O)C(=O)C1=C2C(=O)CC2(C)C(=O)CCC12C` (stereo not given), the T/C under setting [16] was 93 % of control, the T/C under setting [17] is 93 % of control and the T/C under setting [18] is 98 % of control.
Regarding `CCCCC(CC)COc1nc(OCC(CC)CCCC)nc(OCC(CC)CCCC)n1` (stereo not given), the T/C (dose: 25.6 mg/kg/injection, schedule: Q04DX002 (ip), vehicle: saline with Tween-80) was 91 % of control; the T/C (dose: 64.0 mg/kg/injection, schedule: Q04DX002 (ip), vehicle: saline with Tween-80) was 91 % of control; the T/C under setting [8] was 88 % of control; the T/C (dose: 160.0 mg/kg/injection, schedule: Q04DX002 (ip), vehicle: saline with Tween-80) was 91 % of control; the T/C under setting [9] was 92 % of control; the T/C under setting [19] was 87 % of control. Under setting [10], the T/C is 87 % of control.
As to `CCOC(=O)C1=C(C)NC(C)=C(C(=O)OCC)C1`, the T/C under setting [20] was 101 % of control; the T/C under setting [21] was 96 % of control; the T/C under setting [16] is 104 % of control; the T/C under setting [22] is 96 % of control; the T/C under setting [17] was 108 % of control; the T/C (dose: 400.0 mg/kg/injection, schedule: Q01DX009 (ip), vehicle: saline) is 101 % of control. Besides, the T/C under setting [18] was 95 % of control.
On to `O=[N+]([O-])c1cc2c(c([N+](=O)[O-])c1)Nc1cc(Cl)ccc1O2`, for which the T/C (dose: 100.0 mg/kg/injection, schedule: Q01DX009 (ip), vehicle: Klucel (hydroxypropylcellulose) (HPC)) is 95 % of control; the T/C (dose: 200.0 mg/kg/injection, schedule: Q01DX009 (ip), vehicle: Klucel (hydroxypropylcellulose) (HPC)) was 96 % of control; the T/C (dose: 400.0 mg/kg/injection, schedule: Q01DX009 (ip), vehicle: Klucel (hydroxypropylcellulose) (HPC)) was 96 % of control.
Turning to `CN1CCN=C1c1ccc(NC(=O)c2cccc(C(=O)Nc3ccc(C4=NCCN4C)cc3)c2)cc1`, the T/C is 107 % of control (dose: 1.88 mg/kg/injection, schedule: Q01DX Z (ip), vehicle: saline); 101 % of control (dose: 3.75 mg/kg/injection, schedule: Q01DX Z (ip), vehicle: saline); 122 % of control (dose: 7.5 mg/kg/injection, schedule: Q01DX Z (ip), vehicle: saline); 154 % of control (dose: 30.0 mg/kg/injection, schedule: Q01DX Z (ip), vehicle: saline); 234 % of control (dose: 60.0 mg/kg/injection, schedule: Q01DX Z (ip), vehicle: saline); 171 % of control (dose: 120.0 mg/kg/injection, schedule: Q01DX Z (ip), vehicle: saline). The T/C (dose: 240.0 mg/kg/injection, schedule: Q01DX Z (ip), vehicle: saline) was 119 % of control and the T/C (dose: 480.0 mg/kg/injection, schedule: Q01DX Z (ip), vehicle: saline) is 106 % of control.
Take `CNc1ccc(C(=O)O)cc1`: the T/C under setting [20] is 102 % of control, the T/C under setting [21] was 109 % of control and the T/C under setting [22] was 106 % of control.
With `CSc1ccc(OC(=O)Nc2ccccc2C)cc1C`, the T/C (dose: 100.0 mg/kg/injection, schedule: Q04DX002 (ip), vehicle: saline with Tween-80) is 100 % of control; the T/C (dose: 200.0 mg/kg/injection, schedule: Q04DX002 (ip), vehicle: saline with Tween-80) is 100 % of control; the T/C under setting [19] is 118 % of control.
For `CCCC[n+]1cnc(N)c2[nH]cnc21`, the T/C was 93 % of control (dose: 50.0 mg/kg/injection, schedule: Q04DX003 (ip), vehicle: saline); 91 % of control under setting [16]; 100 % of control under setting [17].
Take `COc1ccc(-c2nc3ncnc(N)c3[nH]2)cc1`: the T/C (dose: 12.5 mg/kg/injection, schedule: Q01DX001 (ip), vehicle: saline with Tween-80) is 102 % of control; the T/C (dose: 25.0 mg/kg/injection, schedule: Q01DX001 (ip), vehicle: saline with Tween-80) was 109 % of control; the T/C (dose: 50.0 mg/kg/injection, schedule: Q01DX001 (ip), vehicle: saline with Tween-80) is 106 % of control.
With `C=CCCCCCCCCC(=O)N(C)OC`, the T/C runs as follows: (dose: 25.0 mg/kg/injection, schedule: Q01DX009 (ip), vehicle: saline with Tween-80) 97 % of control; under setting [15], 105 % of control; under setting [1], 94 % of control and 92 % of control.
